Data taken from patent US7074789B2, “Kinase inhibitors” (Amgen Inc., priority 1999, dated 2006).
pIC50: −log10 of the molar value.

What was measured:
Assay type in all cases: biochemical
c-Met = biological target: T1, c-Met (Homo sapiens, UniProt P08581); assay: Kinase inhibition assay (33P transfer), c-Met; settings: Table 2, kinase inhibition class; read-out: Met-1
T1 construct: Kinases are expressed as either kinase domains or full length constructs; made in house
How it was run: (§1)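 GST/His-fusion kinases, E. coli or High Five expressed, affinity purified; 33P-ATP, plate-coated poly(Glu,Tyr) 4:1 or poly(Arg,Ser) 3:1; 0.5% H3PO4 wash, scintillant, LSC.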

PDGFRB = biological target: T2, PDGFRB (Homo sapiens, UniProt P09619); assay: Kinase inhibition assay (33P transfer), PDGFRB; settings: read-out: PDGFRB-1
T2 construct: Kinases are expressed as either kinase domains or full length constructs; made in house

ErbB2 = biological target: T3, ErbB2 (Homo sapiens, UniProt P04626); assay: Kinase inhibition assay (33P transfer), ErbB2; settings: read-out: ErbB2-2
T3 construct: Kinases are expressed as either kinase domains or full length constructs; made in house
Source text: The inhibitor compounds described herein are screened in the following manner. Kinases suitable for use in the following protocol to determine kinase activity of the compounds described herein include, -but are not limited to: Lck, Lyn, Src, Fyn, Syk, Zap-70, Itk, Tec, Btk, EGFR, ErbB2, Kdr, Flt-1, Flt-3, Tek, c-Met, InsR, and AKT.
Kinases are expressed as either kinase domains or full length constructs fused to glutathione S-transferase (GST) or polyHistidine tagged fusion proteins in either E. colior Baculovirus-High Five expression systems. They are purified to near homogeneity by affinity chromatography essentially as previously described (Lehr et al., 1996; Gish et al., 1995). In some instances, kinases are co-expressed or mixed with purified or partially purified regulatory polypeptides prior to measurement of activity.
Kinase activity and inhibition are measured essentially by established protocols (Braunwalder et al., 1996). Briefly, The transfer of ^33PO4 from ATP to the synthetic substrates poly(Glu, Tyr) 4:1 or poly(Arg, Ser) 3:1 attached to the bioactive surface of microtiter plates serves as the basis to evaluate enzyme activity. After an incubation period, the amount of phosphate transferred is measured by first washing the plate with 0.5% phosphoric acid, adding liquid scintillant, and then counting in a liquid scintillation detector. The IC50 is determined by the concentration of compound that causes a 50% reduction in the amount of […] incorporated onto the substrate bound to the plate.

Kdr = biological target: T4, Kdr (Homo sapiens, UniProt P35968); assay: Kinase inhibition assay (33P transfer), Kdr; settings: read-out: KDR-1
T4 construct: Kinases are expressed as either kinase domains or full length constructs; made in house
How it was run: (§2)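 Activity was read as 33P incorporation, counted by liquid scintillation after a 0.5% phosphoric acid wash, into poly(Glu,Tyr) 4:1 or poly(Arg,Ser) 3:1 substrates coated on plates. Enzymes were tagged (GST or polyHis) kinase domains or full-length proteins from bacterial or insect-cell expression, sometimes with regulatory polypeptides.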

Itk = biological target: T5, Itk (Homo sapiens, UniProt Q08881); assay: Kinase inhibition assay (33P transfer), Itk; settings: read-out: Itk-1
T5 construct: Kinases are expressed as either kinase domains or full length constructs; made in house
T5 sequence (Q08881 1-620): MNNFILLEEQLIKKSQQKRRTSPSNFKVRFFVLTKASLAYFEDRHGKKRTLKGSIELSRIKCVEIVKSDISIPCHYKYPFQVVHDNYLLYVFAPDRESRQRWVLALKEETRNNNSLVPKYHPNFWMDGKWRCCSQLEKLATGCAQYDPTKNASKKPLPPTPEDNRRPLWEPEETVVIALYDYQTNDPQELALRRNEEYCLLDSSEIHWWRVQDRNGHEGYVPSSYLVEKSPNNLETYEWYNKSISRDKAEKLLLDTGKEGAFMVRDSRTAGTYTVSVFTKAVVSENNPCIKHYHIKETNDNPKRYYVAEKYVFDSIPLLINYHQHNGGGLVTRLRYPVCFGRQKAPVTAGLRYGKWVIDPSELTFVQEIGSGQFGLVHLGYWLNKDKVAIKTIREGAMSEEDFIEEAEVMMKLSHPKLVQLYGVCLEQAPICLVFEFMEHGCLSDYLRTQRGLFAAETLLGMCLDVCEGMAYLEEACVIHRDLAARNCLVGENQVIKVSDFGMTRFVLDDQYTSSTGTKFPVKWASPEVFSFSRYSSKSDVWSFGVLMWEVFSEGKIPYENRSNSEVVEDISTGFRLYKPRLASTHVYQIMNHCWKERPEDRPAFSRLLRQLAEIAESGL
How it was run: as §1

Lck = biological target: T6, Lck (Homo sapiens, UniProt P06239); assay: Kinase inhibition assay (33P transfer), Lck; settings: read-out: Lck-1
T6 construct: Kinases are expressed as either kinase domains or full length constructs; made in house
How it was run: as §2

IGFR-1 = biological target: T7, IGFR-1 (Homo sapiens, UniProt P08069); assay: Kinase inhibition assay, IGFR-1 (Table 2); settings: Table 2, kinase inhibition class
T7 construct: Kinases are expressed as either kinase domains or full length constructs; made in house

AKT = biological target: T8, AKT (Homo sapiens, UniProt Q9Y243); assay: Kinase inhibition assay (33P transfer), AKT; settings: Table 2, kinase inhibition class; read-out: AKT3-1
T8 construct: Kinases are expressed as either kinase domains or full length constructs; made in house
How it was run: as §2

Zap-70 = biological target: T9, Zap-70 (Homo sapiens, UniProt P43403); assay: Kinase inhibition assay (33P transfer), Zap-70; settings: read-out: Zap-1
T9 construct: Kinases are expressed as either kinase domains or full length constructs; made in house
T9 sequence (P43403 1-619): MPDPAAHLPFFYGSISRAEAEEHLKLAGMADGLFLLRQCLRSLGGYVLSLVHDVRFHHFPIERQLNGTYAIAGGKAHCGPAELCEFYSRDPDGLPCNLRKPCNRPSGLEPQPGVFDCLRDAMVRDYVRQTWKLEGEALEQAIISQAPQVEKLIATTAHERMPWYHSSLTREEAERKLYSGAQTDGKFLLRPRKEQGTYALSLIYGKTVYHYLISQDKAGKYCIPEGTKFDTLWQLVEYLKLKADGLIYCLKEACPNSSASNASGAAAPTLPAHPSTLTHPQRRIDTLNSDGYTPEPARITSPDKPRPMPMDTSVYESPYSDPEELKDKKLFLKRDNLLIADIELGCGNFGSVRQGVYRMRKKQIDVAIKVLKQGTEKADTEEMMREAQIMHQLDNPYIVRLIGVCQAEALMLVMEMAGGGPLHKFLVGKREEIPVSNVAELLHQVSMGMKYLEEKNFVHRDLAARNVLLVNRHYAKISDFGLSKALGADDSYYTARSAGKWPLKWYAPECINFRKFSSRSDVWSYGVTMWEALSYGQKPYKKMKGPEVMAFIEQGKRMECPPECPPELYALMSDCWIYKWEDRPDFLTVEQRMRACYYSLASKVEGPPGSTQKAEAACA
How it was run: as §2

EGFR = biological target: T10, EGFR (Homo sapiens, UniProt P00533); assay: Kinase inhibition assay (33P transfer), EGFR; settings: Table 2, kinase inhibition class; read-out: EGFR-1
T10 construct: Kinases are expressed as either kinase domains or full length constructs; made in house
How it was run: as §1

T10 sequence (P00533 25-1210, species assumed): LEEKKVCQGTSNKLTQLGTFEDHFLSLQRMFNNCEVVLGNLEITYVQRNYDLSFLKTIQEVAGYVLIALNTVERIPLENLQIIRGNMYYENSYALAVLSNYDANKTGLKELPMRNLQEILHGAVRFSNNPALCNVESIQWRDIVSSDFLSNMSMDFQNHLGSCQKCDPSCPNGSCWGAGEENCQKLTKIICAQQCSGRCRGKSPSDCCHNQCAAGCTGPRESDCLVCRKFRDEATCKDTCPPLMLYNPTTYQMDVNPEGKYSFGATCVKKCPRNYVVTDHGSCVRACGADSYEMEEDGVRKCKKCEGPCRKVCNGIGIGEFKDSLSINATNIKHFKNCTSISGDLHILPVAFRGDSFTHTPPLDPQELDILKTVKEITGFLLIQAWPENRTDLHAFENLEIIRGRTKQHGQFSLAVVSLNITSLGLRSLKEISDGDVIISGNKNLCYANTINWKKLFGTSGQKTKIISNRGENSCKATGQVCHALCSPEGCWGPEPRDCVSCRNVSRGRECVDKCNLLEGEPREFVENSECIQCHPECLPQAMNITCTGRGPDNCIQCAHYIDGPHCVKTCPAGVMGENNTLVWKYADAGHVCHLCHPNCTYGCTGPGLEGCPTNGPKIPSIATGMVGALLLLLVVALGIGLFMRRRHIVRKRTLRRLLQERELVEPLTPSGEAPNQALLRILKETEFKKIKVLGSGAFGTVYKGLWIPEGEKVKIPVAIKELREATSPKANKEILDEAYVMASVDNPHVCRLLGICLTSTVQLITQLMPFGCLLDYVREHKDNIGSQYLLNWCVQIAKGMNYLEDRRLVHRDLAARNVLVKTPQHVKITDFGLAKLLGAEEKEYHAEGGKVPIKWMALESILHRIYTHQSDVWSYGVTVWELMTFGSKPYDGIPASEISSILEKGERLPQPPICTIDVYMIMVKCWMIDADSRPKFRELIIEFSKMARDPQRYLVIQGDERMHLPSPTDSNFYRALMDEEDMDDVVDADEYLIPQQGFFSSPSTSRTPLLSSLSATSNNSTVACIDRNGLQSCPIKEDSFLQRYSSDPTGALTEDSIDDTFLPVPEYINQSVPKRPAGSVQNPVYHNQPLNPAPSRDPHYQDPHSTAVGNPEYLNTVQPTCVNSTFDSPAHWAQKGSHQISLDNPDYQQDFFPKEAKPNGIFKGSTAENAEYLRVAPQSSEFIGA
T4 sequence (P35968 20-1356, species assumed): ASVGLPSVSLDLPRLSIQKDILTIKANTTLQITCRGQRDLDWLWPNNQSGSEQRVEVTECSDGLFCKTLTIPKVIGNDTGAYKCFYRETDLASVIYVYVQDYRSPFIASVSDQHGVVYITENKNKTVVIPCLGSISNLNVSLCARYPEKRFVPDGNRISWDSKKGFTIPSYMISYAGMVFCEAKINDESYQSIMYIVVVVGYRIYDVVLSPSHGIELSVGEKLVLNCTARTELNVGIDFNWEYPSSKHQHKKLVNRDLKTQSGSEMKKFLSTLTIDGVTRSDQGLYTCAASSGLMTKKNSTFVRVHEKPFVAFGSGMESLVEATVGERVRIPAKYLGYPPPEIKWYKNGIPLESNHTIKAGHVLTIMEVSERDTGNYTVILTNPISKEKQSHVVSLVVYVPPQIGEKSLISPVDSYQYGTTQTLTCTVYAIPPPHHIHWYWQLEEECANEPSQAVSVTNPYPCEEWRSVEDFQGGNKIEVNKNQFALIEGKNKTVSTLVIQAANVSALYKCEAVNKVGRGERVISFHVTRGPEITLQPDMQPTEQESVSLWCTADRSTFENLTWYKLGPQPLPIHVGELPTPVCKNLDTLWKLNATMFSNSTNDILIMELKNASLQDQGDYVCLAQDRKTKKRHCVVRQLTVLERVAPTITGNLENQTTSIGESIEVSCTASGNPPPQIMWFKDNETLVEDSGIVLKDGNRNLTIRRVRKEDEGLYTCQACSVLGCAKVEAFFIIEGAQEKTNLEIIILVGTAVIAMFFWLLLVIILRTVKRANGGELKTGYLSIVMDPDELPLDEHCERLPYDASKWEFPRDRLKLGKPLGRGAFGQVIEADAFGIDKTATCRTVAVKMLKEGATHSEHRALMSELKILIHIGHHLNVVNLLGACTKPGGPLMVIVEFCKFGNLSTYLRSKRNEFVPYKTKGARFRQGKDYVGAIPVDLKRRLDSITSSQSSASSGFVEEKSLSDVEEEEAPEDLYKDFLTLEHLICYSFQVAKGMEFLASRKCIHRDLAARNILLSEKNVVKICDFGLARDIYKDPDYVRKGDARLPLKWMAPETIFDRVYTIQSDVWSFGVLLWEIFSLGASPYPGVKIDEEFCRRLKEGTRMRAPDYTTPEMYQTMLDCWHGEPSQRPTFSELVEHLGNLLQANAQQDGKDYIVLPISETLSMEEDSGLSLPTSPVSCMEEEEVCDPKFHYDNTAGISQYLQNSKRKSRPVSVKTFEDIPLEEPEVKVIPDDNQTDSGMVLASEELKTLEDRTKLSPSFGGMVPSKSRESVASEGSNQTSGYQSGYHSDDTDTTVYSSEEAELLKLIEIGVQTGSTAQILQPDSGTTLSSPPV
T2 sequence (P09619 33-1106, species assumed): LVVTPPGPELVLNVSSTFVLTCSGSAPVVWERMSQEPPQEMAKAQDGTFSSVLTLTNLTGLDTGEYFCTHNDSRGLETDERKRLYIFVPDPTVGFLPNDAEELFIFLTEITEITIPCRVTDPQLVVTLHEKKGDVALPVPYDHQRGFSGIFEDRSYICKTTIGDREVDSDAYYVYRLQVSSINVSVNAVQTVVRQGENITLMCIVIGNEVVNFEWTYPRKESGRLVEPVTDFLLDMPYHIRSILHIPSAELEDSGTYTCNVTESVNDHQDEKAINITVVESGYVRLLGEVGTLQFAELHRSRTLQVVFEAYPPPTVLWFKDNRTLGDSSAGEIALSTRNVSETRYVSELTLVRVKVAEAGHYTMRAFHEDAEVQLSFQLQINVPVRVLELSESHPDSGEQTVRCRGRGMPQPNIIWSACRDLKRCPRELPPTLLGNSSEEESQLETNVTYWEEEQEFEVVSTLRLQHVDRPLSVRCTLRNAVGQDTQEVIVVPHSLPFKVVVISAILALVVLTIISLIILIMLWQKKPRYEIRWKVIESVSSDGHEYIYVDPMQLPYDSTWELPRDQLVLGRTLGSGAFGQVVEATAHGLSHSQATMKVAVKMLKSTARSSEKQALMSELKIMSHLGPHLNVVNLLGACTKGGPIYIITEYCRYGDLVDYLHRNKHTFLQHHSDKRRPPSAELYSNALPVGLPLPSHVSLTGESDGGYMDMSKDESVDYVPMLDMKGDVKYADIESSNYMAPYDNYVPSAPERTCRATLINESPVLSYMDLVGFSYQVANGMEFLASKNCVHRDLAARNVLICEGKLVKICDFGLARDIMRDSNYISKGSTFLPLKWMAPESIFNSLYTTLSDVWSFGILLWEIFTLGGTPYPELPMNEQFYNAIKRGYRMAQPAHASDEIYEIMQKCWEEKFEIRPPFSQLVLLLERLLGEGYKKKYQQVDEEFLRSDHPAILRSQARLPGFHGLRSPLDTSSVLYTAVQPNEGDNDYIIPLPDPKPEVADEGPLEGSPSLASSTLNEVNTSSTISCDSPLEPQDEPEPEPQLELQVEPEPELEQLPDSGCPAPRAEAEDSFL
T6 sequence (P06239 whole entry, species assumed, the tested form may be a part): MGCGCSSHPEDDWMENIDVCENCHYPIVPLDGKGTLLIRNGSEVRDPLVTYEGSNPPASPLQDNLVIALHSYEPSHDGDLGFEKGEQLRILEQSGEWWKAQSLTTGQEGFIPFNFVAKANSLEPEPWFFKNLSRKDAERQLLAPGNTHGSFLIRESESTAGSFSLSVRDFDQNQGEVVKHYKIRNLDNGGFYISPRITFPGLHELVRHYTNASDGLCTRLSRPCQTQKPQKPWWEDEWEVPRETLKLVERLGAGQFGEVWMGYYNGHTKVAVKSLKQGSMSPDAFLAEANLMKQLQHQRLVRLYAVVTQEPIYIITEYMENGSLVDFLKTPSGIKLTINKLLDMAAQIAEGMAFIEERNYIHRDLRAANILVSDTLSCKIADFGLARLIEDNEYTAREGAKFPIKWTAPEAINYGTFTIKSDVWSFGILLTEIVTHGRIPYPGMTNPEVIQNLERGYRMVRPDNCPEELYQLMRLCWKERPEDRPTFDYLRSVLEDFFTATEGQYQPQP
T8 sequence (Q9Y243 whole entry, the tested form may be a part): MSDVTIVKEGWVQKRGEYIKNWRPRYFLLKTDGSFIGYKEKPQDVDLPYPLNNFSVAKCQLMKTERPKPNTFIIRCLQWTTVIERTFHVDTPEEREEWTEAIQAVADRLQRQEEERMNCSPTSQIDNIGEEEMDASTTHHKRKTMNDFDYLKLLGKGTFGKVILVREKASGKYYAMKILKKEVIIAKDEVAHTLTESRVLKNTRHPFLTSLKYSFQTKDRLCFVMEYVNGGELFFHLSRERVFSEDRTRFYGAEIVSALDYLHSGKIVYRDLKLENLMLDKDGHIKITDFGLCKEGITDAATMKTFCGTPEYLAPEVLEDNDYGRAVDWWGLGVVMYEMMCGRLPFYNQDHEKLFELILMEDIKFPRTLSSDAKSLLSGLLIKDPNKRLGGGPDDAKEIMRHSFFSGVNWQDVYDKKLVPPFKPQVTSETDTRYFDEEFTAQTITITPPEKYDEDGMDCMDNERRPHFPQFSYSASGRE

Structure (SMILES) | pIC50 (c-Met) | pIC50 (PDGFRB) | pIC50 (ErbB2) | pIC50 (Kdr) | pIC50 (Itk) | pIC50 (Lck) | pIC50 (IGFR-1) | pIC50 (AKT) | pIC50 (Zap-70) | pIC50 (EGFR)
COc1ccc(CCNc2ncnc(N3CCCc4cc(C)ccc43)n2)cc1OC [Compound 771] | < 4.95 | < 4.95 | < 4.95 | 5.06 to 5.23 | < 4.95 | < 4.95 | < 4.95 | < 4.95 | < 4.95 | < 4.95
COc1ccc(Nc2ncnc(N(C)c3ccc(Cl)c(Cl)c3)n2)cc1OC [Compound 758] | > 6.01 | > 6.01 | > 6.01 | 5.23 to 6.01 | < 4.96 | > 6.01 | 5.06 to 5.23 | < 4.96 | < 4.96 | > 6.01
COc1cc(Nc2ncnc(-n3c(NCc4ncc[nH]4)nc4ccccc43)n2)cc(OC)c1OC [Compound 583] | < 5.02 | 5.30 to 6.07 | < 5.02 | 5.13 to 5.30 | 5.30 to 6.07 | 5.30 to 6.07 | 5.30 to 6.07 | < 5.02 | < 5.02 | < 5.02
CN(c1ccccc1)c1ncnc(-n2c(N)nc3ccccc32)n1 [Compound 662] | < 4.85 | < 4.85 | 4.96 to 5.12 | 5.12 to 5.90 | < 4.85 | 4.96 to 5.12 | 4.85 to 4.96 | < 4.85 | < 4.85 | 4.96 to 5.12
COC(=O)Cc1cccc(Nc2ncnc(-n3c(NCc4ccccn4)nc4ccccc43)n2)c1 [Compound 547] | < 5.02 | < 5.02 | < 5.02 | > 6.07 | < 5.02 | < 5.02 | < 5.02 | < 5.02 | < 5.02 | < 5.02

Continued, values first:

pIC50 (c-Met) | pIC50 (PDGFRB) | pIC50 (ErbB2) | pIC50 (Kdr) | pIC50 (Itk) | pIC50 (Lck) | pIC50 (IGFR-1) | pIC50 (AKT) | pIC50 (Zap-70) | pIC50 (EGFR) | Structure (SMILES)
< 4.94 | < 4.94 | < 4.94 | < 4.94 | < 4.94 | < 4.94 | < 4.94 | < 4.94 | < 4.94 | < 4.94 | CCN(CC)c1ccc(Nc2ncnc(N3CCCc4cc(C)ccc43)n2)cc1 [Compound 779]
< 4.91 | 5.02 to 5.18 | 5.02 to 5.18 | 4.91 to 5.02 | < 4.91 | 5.18 to 5.96 | 5.18 to 5.96 | < 4.91 | < 4.91 | < 4.91 | CCOc1cccc(Nc2ncnc(Nc3ccc(OC)c(OC)c3)n2)c1 [Compound 783]
5.00 to 5.11 | 5.11 to 5.27 | < 5.00 | > 6.05 | 5.27 to 6.05 | 5.11 to 5.27 | > 6.05 | < 5.00 | < 5.00 | < 5.00 | Nc1nc2ccccc2n1-c1ncnc(Nc2cccc(CC(=O)NCc3ccccn3)c2)n1 [Compound 956]
< 5.03 | > 6.09 | < 5.03 | > 6.09 | < 5.03 | 5.31 to 6.09 | < 5.03 | < 5.03 | < 5.03 | 5.14 to 5.31 | COc1cc(Nc2ncnc(-n3c(Nc4cccc(F)c4)nc4ccccc43)n2)cc(OC)c1OC [Compound 1053]
